In paper PMC8086025, “A benzopyran with antiarrhythmic activity is an inhibitor of Kir3.1-containing potassium channels” (The Journal of Biological Chemistry, 2021):

Molecular target: Nav1.5 (Homo sapiens, UniProt Q14524)
Experiment: Cloned cardiac ion channel manual patch clamp, Nav1.5
Assay type: cell-based
Settings: 1Hz; MPC (manual patch clamp)
Method: For the data shown in Table S6, HEK293 cells expressing Kir3.1/4, Kir6.2/SUR2A (provided by Dr Andrew Tinker), Kir3.4, Kir2.1, and CHO cell lines stably expressing hERG KV1.5, KV4.3, NaV1.5 were maintained in media containing 10% FCS and appropriate selection antibiotic. Cells were grown either in suspension or in T-flasks and routinely passaged. Cells for patch clamping experiments were plated onto glass cover slips prior to use. Cells for automated patch clamping experiments were freshly prepared on each experimental day.
Standard giga-seal whole-cell patch-clamp techniques were performed at room temperature using glass pipettes (2–5 MΩ). HEKA EPC9/10 amplifiers and Pulse software were used for data acquisition. Series resistance was compensated by >70%. Experimental solutions are given under Supporting information. […]
Ionic current recordings were analyzed using HEKA software. […]
Inhibition of current (or leak-subtracted current) was calculated from steady-state current recorded in the absence (IControl) and presence of test-article (IIntervention). […]
Concentration-response data were fitted with a sigmoidal function of the form above, where YMin and YMax represent maximum and minimum current inhibition which were constrained to 100 and 0 respectively and x is the Log[DRUG (M)] based on GraphPad Prism analysis. % inhibition was calculated as in Equation 1. […]

Sequence of Nav1.5 (Q14524 whole entry): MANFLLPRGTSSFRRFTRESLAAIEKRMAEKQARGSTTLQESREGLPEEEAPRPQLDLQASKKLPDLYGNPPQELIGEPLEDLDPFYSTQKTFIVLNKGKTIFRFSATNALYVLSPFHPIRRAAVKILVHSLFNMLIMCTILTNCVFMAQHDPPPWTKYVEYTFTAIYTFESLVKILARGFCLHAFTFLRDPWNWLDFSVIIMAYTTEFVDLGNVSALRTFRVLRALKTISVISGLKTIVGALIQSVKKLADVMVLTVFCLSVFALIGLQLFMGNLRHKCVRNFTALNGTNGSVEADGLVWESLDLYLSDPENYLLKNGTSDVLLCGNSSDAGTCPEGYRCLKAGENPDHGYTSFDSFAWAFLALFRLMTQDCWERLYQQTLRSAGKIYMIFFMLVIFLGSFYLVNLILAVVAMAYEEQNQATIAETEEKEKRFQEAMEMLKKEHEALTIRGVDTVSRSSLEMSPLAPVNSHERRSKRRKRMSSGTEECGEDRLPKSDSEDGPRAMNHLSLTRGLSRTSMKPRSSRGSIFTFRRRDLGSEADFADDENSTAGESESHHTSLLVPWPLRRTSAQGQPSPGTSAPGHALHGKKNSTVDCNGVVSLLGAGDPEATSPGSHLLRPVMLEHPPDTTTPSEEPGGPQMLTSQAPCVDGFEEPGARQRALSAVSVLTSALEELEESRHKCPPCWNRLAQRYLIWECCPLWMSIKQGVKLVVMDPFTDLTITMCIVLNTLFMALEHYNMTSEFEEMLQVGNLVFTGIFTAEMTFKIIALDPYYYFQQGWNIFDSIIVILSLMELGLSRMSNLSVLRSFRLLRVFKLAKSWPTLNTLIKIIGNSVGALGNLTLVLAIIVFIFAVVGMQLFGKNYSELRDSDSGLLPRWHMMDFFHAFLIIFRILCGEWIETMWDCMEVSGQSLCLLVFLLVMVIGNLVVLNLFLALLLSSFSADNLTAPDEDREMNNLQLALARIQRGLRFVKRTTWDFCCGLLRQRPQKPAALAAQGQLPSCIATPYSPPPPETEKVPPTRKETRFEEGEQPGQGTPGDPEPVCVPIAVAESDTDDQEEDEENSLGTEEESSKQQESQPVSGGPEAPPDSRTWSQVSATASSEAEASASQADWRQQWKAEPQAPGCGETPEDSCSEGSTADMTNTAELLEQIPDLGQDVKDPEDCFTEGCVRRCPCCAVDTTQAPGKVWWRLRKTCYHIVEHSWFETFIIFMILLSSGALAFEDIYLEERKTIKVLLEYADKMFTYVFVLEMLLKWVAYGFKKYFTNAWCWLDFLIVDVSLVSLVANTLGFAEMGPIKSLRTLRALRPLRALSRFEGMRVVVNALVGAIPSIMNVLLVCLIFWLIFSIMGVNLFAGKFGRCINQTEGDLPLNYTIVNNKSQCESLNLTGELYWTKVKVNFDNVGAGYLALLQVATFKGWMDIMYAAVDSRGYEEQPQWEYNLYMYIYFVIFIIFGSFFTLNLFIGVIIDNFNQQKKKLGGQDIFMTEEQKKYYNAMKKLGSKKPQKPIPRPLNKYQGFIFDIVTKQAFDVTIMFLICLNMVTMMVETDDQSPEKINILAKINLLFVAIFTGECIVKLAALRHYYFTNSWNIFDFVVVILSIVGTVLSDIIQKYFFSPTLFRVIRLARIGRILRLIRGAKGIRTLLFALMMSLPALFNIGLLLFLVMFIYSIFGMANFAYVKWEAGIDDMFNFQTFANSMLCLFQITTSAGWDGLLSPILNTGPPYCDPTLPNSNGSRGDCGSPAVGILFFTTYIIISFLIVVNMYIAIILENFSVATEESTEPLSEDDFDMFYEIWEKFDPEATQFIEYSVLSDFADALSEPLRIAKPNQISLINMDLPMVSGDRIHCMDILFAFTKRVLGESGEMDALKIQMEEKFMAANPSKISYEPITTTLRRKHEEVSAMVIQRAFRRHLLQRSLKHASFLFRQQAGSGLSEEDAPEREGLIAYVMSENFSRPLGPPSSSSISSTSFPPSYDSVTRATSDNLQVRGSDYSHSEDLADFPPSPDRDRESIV

Cc1cc(CO)nc2cc3c(cc12)OC(C)(C)[C@H](O)[C@H]3NCCc1ccccc1 [BP-G1, (3R,4S)-7-(hydroxymethyl)-2,2,9-trimethyl-4-(2-phenylethylamino)-3,4-dihydropyrano[2,3-g]quinolin-3-ol]
IC50: > 10 µM
